The results in this text go back to PMC8881063 (Journal of Enzyme Inhibition and Medicinal Chemistry, 2022).

Entries after “also recorded” stand apart in the source; their conditions may differ. Some results are limits rather than exact numbers.

One series relates to BV2 cells. As to the kind of experiment: BV2 cell viability, WST-1 assay. The class given is cell-based. The settings on record: doses of 1, 10, 30 and 50 µM. The source says: Promising antineurodegenrative candidate molecules should not impair viability of CNS cells. Microglia are critical cells within CNS involved in microglia–neuron communications and are responsible for maintenance of brain integrity and health[61]^,[62]. However, under neuroinflammatory conditions, aberrant activation of microglia contributes to neurodegeneration and disease progression. In this regard, suppression of the abnormal activation while maintenance of viability of microglia is important considerations. […] The viability assay was carried out using the water-soluble tetrazolium reagent WST-1 which eliminates the formazan dissolution step requested in case of MTT[65] employing multiple doses of 1, 10, 30, and 50 µM. […] In lieu of this, it might be inferred that these compounds showing effective inhibition of MAO-B activity and triggering no impairment of microglia viability are good candidates might be advanced for further evaluation towards the development of multifunctional molecules for neurodegenerative diseases such as PD.
The impact of the compounds on the viability of cells was performed by the well-known WST-1 assay method as described in the Supporting information.
(In general: Tetrazolium dyes change colour on reduction, which living cells bring about.)

In series [1] the target is T1, MAO-B (Homo sapiens, UniProt P27338).
T1 sequence (P27338 1-520): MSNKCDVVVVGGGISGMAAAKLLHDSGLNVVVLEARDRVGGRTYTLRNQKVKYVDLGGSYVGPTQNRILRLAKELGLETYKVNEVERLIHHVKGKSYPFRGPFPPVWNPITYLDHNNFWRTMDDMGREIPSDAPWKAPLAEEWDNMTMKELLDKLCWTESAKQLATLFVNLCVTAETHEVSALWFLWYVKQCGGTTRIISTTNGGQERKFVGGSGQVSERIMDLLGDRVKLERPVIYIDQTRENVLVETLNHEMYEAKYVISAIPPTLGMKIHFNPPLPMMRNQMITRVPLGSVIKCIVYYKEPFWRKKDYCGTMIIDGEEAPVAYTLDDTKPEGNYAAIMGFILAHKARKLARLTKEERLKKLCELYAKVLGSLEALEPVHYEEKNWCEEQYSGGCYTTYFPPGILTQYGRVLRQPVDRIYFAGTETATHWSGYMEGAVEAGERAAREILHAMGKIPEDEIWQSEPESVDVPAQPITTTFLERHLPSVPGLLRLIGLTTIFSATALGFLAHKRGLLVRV
The series is described as follows: hMAO-B inhibition, spectrophotometric assay. The note with it: for Selectivity index for inhibition of MAO-B: IC50 MAO-A divided by IC50 MAO-B; for inhibition at 10 µM: read-out: MAO-B % Inhibition, single dose concentration of 10 µM.
Method: The inhibitory activities of the compounds against hMAO-A and hMAO-B enzymes were evaluated referring to a previously described method (Supporting information)[49].

The target in series [2] is T1, MAO-B. The series is described as follows: MAO-B inhibition reversibility testing (washing). The class given is biochemical. The settings on record: enzymatic activity after washing. The protocol: (§1) To get insights into MAO-B inhibition reaction by compounds 1p and 1y, a kinetic study and reversibility testing were conducted. As illustrated in Figure 4(A,B), Michaelis–Menten graphs were constructed using different concentrations of compounds 1p and 1y employing different concentrations benzylamine as a substrate.
(§2) Kinetics of the inhibition of MAO-B and testing of reversibility were conducted according to literature-reported protocols[59] as indicated in the Supporting information.

The test system of series [3] is LPS-treated BV2 cells (NO production). The series is described as follows: LPS-induced production of nitric oxide in BV2 cells. The class given is cell-based. The settings on record: different concentrations, Figure 3(A). The method, then:
(§3) Neuroinflammation is a crucial component in neurodegenerative diseases. Chronic activation of microglia, which are the brain-resident form of macrophages, results in sustained production of several proinflammatory mediators including glial NO, PGE2, and others molecules that are implicated in multiple neurodegenerative diseases. […] In this regard, LPS-treated BV2 cells were incubated with or without different concentrations of each compound. […] Based on collective results of antineuroinflammatory activity evaluation, in conjugation with above-conducted MAO inhibitions’ assays, compound 1p might be claimed as a promising lead compound eliciting polypharmacological effects combining inhibition of neuroinflammation and MAO-B activity; both processes are crucial components of neurodegenerative diseases such as PD.
(§4) The abilities of compounds to inhibit the induced production of NO and PGE2 were assessed by well-known protocol as indicated in the Supporting information.

For series [4], the system named is LPS-treated BV2 cells (PGE2 production). As to the kind of experiment: LPS-induced production of PGE2 in BV2 cells. The class given is cell-based. The settings on record: different concentrations, Figure 3(B). The method, then:
as §3, §4

The target of another series is T2, recombinant human MAO-A (Homo sapiens, UniProt P21397).
T2 sequence (P21397 1-527): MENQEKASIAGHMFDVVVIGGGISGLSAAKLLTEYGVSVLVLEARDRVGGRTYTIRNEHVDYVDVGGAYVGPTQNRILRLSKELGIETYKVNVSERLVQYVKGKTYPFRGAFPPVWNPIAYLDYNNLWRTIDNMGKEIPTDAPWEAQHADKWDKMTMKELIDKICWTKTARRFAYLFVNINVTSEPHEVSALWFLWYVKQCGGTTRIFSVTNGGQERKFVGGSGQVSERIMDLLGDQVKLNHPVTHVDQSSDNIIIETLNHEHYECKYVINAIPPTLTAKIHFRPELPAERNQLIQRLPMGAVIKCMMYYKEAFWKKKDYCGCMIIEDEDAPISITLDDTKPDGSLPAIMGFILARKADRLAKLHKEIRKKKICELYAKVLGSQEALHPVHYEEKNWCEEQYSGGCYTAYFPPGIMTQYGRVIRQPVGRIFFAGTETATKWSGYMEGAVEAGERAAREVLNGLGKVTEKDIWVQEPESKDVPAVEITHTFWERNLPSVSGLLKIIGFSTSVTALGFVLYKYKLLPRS
As to the kind of experiment: hMAO-A inhibition, spectrophotometric assay. The settings on record: for inhibition at 10 µM: single dose concentration of 10 µM. The class given is biochemical. An excerpt:
Two different MAO isoforms are known.

The target in series [5] is T1, MAO-B. As to the kind of experiment: MAO-B inhibition kinetic study (Michaelis–Menten, Lineweaver–Burk). It counts as biochemical. The settings on record: for Type of MAO-B inhibition: Lineweaver–Burk plots; for Ki: benzylamine as substrate. The protocol:
as §1, §2

Regarding `COc1ccc(/C=C2\Oc3cc(O)ccc3C2=O)c(OC)c1OC` [Compound 1p], in the series on BV2 cells, the “Impact on viability of BV2 cells” value is reported as “none of the tested concentrations”. For the same compound, at MAO-B [1], half-maximal inhibition (IC50) required 171 nM, the “Selectivity index for inhibition of MAO-B” value is given as greater than 583 and the inhibition at 10 µM turned out to be 96.7%. Also, the “Reversibility of MAO-B inhibition” value at MAO-B [2] is “washing restored the enzymatic activity”. Also, in series [3], the “Effect on LPS-induced NO production by BV2 cells” value is reported as “significant inhibition of NO production”. The “Effect on LPS-induced PGE2 production by BV2 cells” value in series [4] is recorded as “effectively suppressed the induced-PGE2 production”. Also, on recombinant human MAO-A, the IC50 was greater than 100000 nM and the inhibition at 10 µM is -1.53%. Further, at MAO-B [5], the “Type of MAO-B inhibition” value was “competitive inhibitors; also recorded: Competitive inhibition” and the affinity, expressed as Ki, was 36.5 nM.

Take `COc1cccc(/C=C2\Oc3cc(OC)ccc3C2=O)c1` [Compound 1y]: in the series with BV2 cells, the “Impact on viability of BV2 cells” value is on record as “none of the tested concentrations”. Besides, on MAO-B [1], the IC50 was 201 nM, the “Selectivity index for inhibition of MAO-B” value is reported as greater than 496 and the inhibition at 10 µM was determined as 99.2%. Moreover, at MAO-B [2], the “Reversibility of MAO-B inhibition” value is given as “washing restored the enzymatic activity”. Further, on recombinant human MAO-A, the half-maximal inhibitory concentration (IC50) was greater than 100000 nM and the inhibition at 10 µM worked out at 3.26%. Moreover, at MAO-B [5], the “Type of MAO-B inhibition” value is recorded as “competitive inhibitors; also recorded: Competitive inhibition” and affinity was put at a Ki of 29.1 nM.

Regarding `O=C1/C(=C/c2ccc(O)cc2)Oc2cc(O)ccc21` [Hispidol, hispidol, reference compound], the “Impact on viability of BV2 cells” value with BV2 cells is reported as “cytotoxic effects”. In addition, the “Effect on LPS-induced NO production by BV2 cells” value in series [3] is “significant inhibition of NO production”. In addition, the “Effect on LPS-induced PGE2 production by BV2 cells” value in series [4] was “effectively suppressed the induced-PGE2 production”. In addition, at recombinant human MAO-A, the concentration for half-maximal inhibition (IC50) came out at 5280 nM and the inhibition at 10 µM turned out to be 69.3%.

Take `C[C@H](NCc1ccc(OCc2cccc(F)c2)cc1)C(N)=O` [Safinamide, safinamide, reference compound]: the “Impact on viability of BV2 cells” value in the series on BV2 cells is recorded as “cytotoxic effects”. In addition, the “Effect on LPS-induced NO production by BV2 cells” value in series [3] was “significant inhibition of NO production”. Besides, the “Effect on LPS-induced PGE2 production by BV2 cells” value in series [4] is recorded as “undesirable dose-dependent increase in PGE2 production”.

As usually defined, the IC50 is the midpoint of a concentration-inhibition curve. The Ki is the equilibrium dissociation constant of an inhibitor or competing ligand from its target.
